In US7902187B2, “6-substituted 2-(benzimidazolyl)purine and purinone derivatives for immunosuppression” (Wyeth LLC, priority 2006, dated 2011):

Biological target: T1, Jak3 (Homo sapiens, UniProt P52333)
T1 construct: A fragment encoding the catalytic domain of Jak3 (508aa to 1124aa) was ligated with GST at 5′ end; made in house; host or cells: Sf9 insect cells (baculovirus, pFastBac 1)
T1 sequence (P52333 508-1124): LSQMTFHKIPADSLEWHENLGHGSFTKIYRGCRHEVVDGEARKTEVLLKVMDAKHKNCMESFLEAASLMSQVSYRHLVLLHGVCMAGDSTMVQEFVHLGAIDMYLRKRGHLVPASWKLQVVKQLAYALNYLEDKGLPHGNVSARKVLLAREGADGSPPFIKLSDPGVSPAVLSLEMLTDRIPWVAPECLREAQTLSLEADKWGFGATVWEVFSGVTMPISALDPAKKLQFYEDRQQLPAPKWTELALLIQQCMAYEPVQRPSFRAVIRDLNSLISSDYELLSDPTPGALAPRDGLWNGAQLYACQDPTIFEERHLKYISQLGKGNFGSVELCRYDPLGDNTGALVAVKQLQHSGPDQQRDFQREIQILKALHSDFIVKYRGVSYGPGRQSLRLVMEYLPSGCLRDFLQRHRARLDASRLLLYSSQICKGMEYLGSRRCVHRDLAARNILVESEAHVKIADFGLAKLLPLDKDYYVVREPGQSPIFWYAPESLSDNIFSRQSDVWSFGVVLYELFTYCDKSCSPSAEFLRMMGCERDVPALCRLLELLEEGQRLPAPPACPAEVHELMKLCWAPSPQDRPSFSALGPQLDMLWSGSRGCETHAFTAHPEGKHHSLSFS
Test: Jak3 Kinase Assay (HTRF)
Assay type: biochemical
Details: GST-Jak3 catalytic domain, 1 μM ATP, 60-min incubation; read-out: Jak3 Kinase, IC50 representation
Description: Human Jak3 cDNA was amplified by PCR. A fragment encoding the catalytic domain of Jak3 (508aa to 1124aa) was ligated with GST at 5′ end. This fused GST-Jak3 DNA fragment was cloned into the EcoRI site of the donor plasmid pFastBac 1 (Life Technologies #10359-016). The transformation, transposition, and transfection of insect cells (Sf9) were performed according to the manufacture's instructions. The cell lysate containing recombinant GST-Jak3 was used in the kinase assay. Anti-GST antibody (10 μg/ml, Sigma #G1417) was coated onto a 384-well plate at 4° C. overnight. Cell lysate containing GST-Jak3 (1:100 dilution) was added to the anti-GST coated plates, and GST-Jak3 was captured by immobilized anti-GST antibody. Testing compounds and substrate mix (50 mM HEPES, pH 7, 0.5 mM Na3VO4, 25 mM MgCl2, 1 mM DTT, 0.005% BSA, 1 μM ATP, and 4.5 μg/ml biotinyl poly-Glu,Ala,Tyr) were added to the plate to initiate the reaction. After a 60-min incubation, the reaction was stopped by 4 mM EDTA, and phosphorylation of biotinyl poly-Glu,Ala,Tyr was detected using 17 μg/ml Cy5-streptavidin (Amersham, #PA92005) and 2.7 μg/ml Europium-conjugated anti-phosphotyrosine antibody (PerkinElmer #AD0069) using homogeneous time-resolved fluorescence (HTRF) technology.

Row | IC50 [nM] | SMILES
1 | < 100 | CN1CCC(Nc2nc(-n3cnc4ccc(C#N)cc43)nc3c2[nH]c(=O)n3C2CCOCC2)CC1
2 | 100 to 1000 | CC1CCN(c2nc(-n3cnc4ccc(Cl)cc43)nc3c2[nH]c(=O)n3C2CCOCC2)CC1
3 | < 100 | O=c1[nH]c2c(N3CCC3)nc(-n3cnc4ccc(Cl)cc43)nc2n1C1CCOCC1
4 | < 100 | O=c1[nH]c2c(N3CCC(F)CC3)nc(-n3cnc4ccc(F)cc43)nc2n1C1CCOCC1
5 | < 100 | N#Cc1ccc2ncn(-c3nc(N4CC(F)(F)C4)c4[nH]c(=O)n([C@H]5CC[C@H](O)CC5)c4n3)c2c1
6 | < 100 | O=c1[nH]c2c(N3CC(O)C3)nc(-n3cnc4ccc(Cl)cc43)nc2n1C1CCOCC1
7 | < 100 | N#Cc1ccc2ncn(-c3nc(N4CC(F)(F)C4)c4[nH]c(=O)n(C5CCOCC5)c4n3)c2c1
8 | < 100 | N#Cc1ccc2ncn(-c3nc(N4CCCC(O)CC4)c4[nH]c(=O)n(C5CCOCC5)c4n3)c2c1 (stereo not drawn)
9 | < 100 | N#Cc1ccc2ncn(-c3nc(N4CCC4)c4[nH]c(=O)n(C5CCOCC5)c4n3)c2c1
10 | < 100 | CNC(=O)c1nc(-n2cnc3ccc(F)cc32)nc2c1[nH]c(=O)n2C1CCOCC1
11 | < 100 | O=c1[nH]c2c(OC3CCC3)nc(-n3cnc4ccc(F)cc43)nc2n1C1CCOCC1
12 | < 100 | Cn1c(=O)n([C@H]2CC[C@H](O)CC2)c2nc(-n3cnc4ccc(C#N)cc43)nc(N3CC(F)(F)C3)c21
13 | < 100 | O=c1[nH]c2c(NCCCO)nc(-n3cnc4ccc(Cl)cc43)nc2n1C1CCOCC1
14 | < 100 | N#Cc1ccc2ncn(-c3nc(NCCCN)c4[nH]c(=O)n(C5CCOCC5)c4n3)c2c1
15 | < 100 | COCCCn1c(=O)[nH]c2c(N3CC(F)(F)C3)nc(-n3cnc4ccc(C#N)cc43)nc21
16 | < 100 | COCCCNc1nc(-n2cnc3ccc(Cl)cc32)nc2c1[nH]c(=O)n2C1CCOCC1
17 | < 100 | CN1CCN(c2nc(-n3cnc4ccc(C#N)cc43)nc3c2[nH]c(=O)n3C2CCOCC2)CC1
18 | < 100 | O=c1[nH]c2c(N3CCC(O)C3)nc(-n3cnc4ccc(F)cc43)nc2n1C1CCOCC1 (stereo not drawn)
19 | < 100 | CC(C)(C)OC(=O)NCCCNc1nc(-n2cnc3ccc(C#N)cc32)nc2c1[nH]c(=O)n2C1CCOCC1
20 | < 100 | N#Cc1ccc2ncn(-c3nc(-c4ccncc4)c4[nH]c(=O)n(C5CCOCC5)c4n3)c2c1
21 | < 100 | N#Cc1ccc2ncn(-c3nc(NC4CCCC4)c4[nH]c(=O)n(C5CCOCC5)c4n3)c2c1
22 | < 100 | N#Cc1ccc2ncn(-c3nc(NC4CCC4)c4[nH]c(=O)n(C5CCOCC5)c4n3)c2c1
23 | < 100 | O=c1[nH]c2c(NC3CNC3)nc(-n3cnc4ccc(F)cc43)nc2n1C1CCOCC1
24 | 100 to 1000 | CO[C@H]1CC[C@H](n2c(=O)[nH]c3c(Cl)nc(-n4cnc5ccc(C#N)cc54)nc32)CC1
25 | < 100 | Cn1c(=O)n([C@H]2CC[C@H](O)CC2)c2nc(-n3cnc4ccc(C#N)cc43)nc(-c3ccncc3)c21
26 | < 100 | N#Cc1ccc2ncn(-c3nc(N4CCOCC4)c4[nH]c(=O)n(C5CCOCC5)c4n3)c2c1
27 | < 100 | O=c1[nH]c2c(N3CC(F)(F)C3)nc(-n3cnc4ccc(Cl)cc43)nc2n1C1CCOCC1
28 | < 100 | N#Cc1ccc2ncn(-c3nc(NCCCN4CCCCC4)c4[nH]c(=O)n(C5CCOCC5)c4n3)c2c1
29 | < 100 | O=c1[nH]c2c(N3CC(F)(F)C3)nc(-n3cnc4ccc(F)cc43)nc2n1[C@H]1CC[C@H](O)CC1
30 | < 100 | CO[C@H]1CC[C@H](n2c(=O)[nH]c3c(N4CC(F)(F)C4)nc(-n4cnc5ccc(C#N)cc54)nc32)CC1

The next lines start with the compound.

Row | SMILES | IC50 [nM]
31 | O=c1[nH]c2c(-c3ccc(F)cc3)nc(-n3cnc4ccc(F)cc43)nc2n1C1CCOCC1 | 100 to 1000
32 | O=c1[nH]c2c(NCC3CC3)nc(-n3cnc4ccc(F)cc43)nc2n1[C@@H]1CCOc2c(F)cccc21 | 100 to 1000
33 | O=c1[nH]c2c(-c3ccncc3)nc(-n3cnc4ccc(Cl)cc43)nc2n1C1CCOCC1 | < 100
34 | CCc1noc(CNc2nc(-n3cnc4ccc(F)cc43)nc3c2[nH]c(=O)n3C2CCOCC2)n1 | < 100
35 | Cn1c(=O)n(C2CCOCC2)c2nc(-n3cnc4ccc(Cl)cc43)nc(NCC(F)(F)CCl)c21 | < 100
36 | O=c1[nH]c2c(Cl)nc(-n3cnc4ccc(F)cc43)nc2n1[C@@H]1CCOc2c(F)cccc21 | < 100
37 | O=c1[nH]c2c(-c3ccccc3)nc(-n3cnc4ccc(F)cc43)nc2n1[C@@H]1CCOc2c(F)cccc21 | 100 to 1000
38 | O=c1[nH]c2c(-c3ccncc3)nc(-n3cnc4ccc(F)cc43)nc2n1C1CCOCC1 | < 100
39 | CCC(C)c1nc(-n2cnc3ccc(F)cc32)nc2c1[nH]c(=O)n2[C@@H]1CCOc2c(F)cccc21 (stereo partly drawn) | > 1000
40 | COCCCCn1c(=O)[nH]c2c(N3CC(F)(F)C3)nc(-n3cnc4ccc(C#N)cc43)nc21 | < 100
41 | COc1ccc(-c2nc(-n3cnc4ccc(F)cc43)nc3c2[nH]c(=O)n3C2CCOCC2)cn1 | < 100
42 | O=C(c1nc(-n2cnc3ccc(F)cc32)nc2c1[nH]c(=O)n2C1CCOc2ccccc21)N1CCCCC1 (stereo not drawn) | < 100
43 | O=c1[nH]c2c(-c3cccc(Cl)c3)nc(-n3cnc4ccc(F)cc43)nc2n1C1CCOCC1 | 100 to 1000
44 | O=c1[nH]c2c(N3CCC3)nc(-n3cnc4ccc(F)cc43)nc2n1[C@@H]1CCOc2c(F)cccc21 | < 100
45 | Cn1c(=O)n([C@H]2CC[C@H](O)CC2)c2nc(-n3cnc4ccc(F)cc43)nc(N3CCC(F)(F)CC3)c21 | < 100
46 | O=c1[nH]c2c(N3CCC3)nc(-n3cnc4ccc(F)cc43)nc2n1C1CCOCC1 | < 100
47 | O=c1[nH]c2c(-c3cccc4[nH]ccc34)nc(-n3cnc4ccc(F)cc43)nc2n1C1CCOCC1 | < 100
48 | O=c1[nH]c2c(-c3cccc4cnccc34)nc(-n3cnc4ccc(F)cc43)nc2n1C1CCOCC1 | 100 to 1000
49 | Cn1c(=O)n([C@H]2CC[C@H](O)CC2)c2nc(-n3cnc4ccc(Cl)cc43)nc(N3CC[C@H](F)C3)c21 | < 100
50 | O=c1[nH]c2c(-c3ccc(Cl)cc3)nc(-n3cnc4ccc(F)cc43)nc2n1C1CCOCC1 | 100 to 1000

Row | SMILES | IC50 [nM]
51 | Cn1c(=O)n([C@H]2CC[C@H](O)CC2)c2nc(-n3cnc4ccc(F)cc43)nc(N3CC(F)(F)C3)c21 | < 100
52 | O=c1[nH]c2c(N3CCCC3)nc(-n3cnc4ccc(F)cc43)nc2n1C1CCOCC1 | < 100
53 | O=c1[nH]c2c(-c3ccncc3)nc(-n3cnc4ccc(OC(F)(F)F)cc43)nc2n1C1CCOCC1 | 100 to 1000
54 | O=c1[nH]c2c(-c3ccccc3)nc(-n3cnc4ccccc43)nc2n1[C@@H]1CCOc2ccc(F)cc21 | 100 to 1000
55 | O=c1[nH]c2c(N3CCC(F)(F)C3)nc(-n3cnc4ccc(F)cc43)nc2n1C1CCOCC1 | < 100
56 | Cn1cc(-c2nc(-n3cnc4ccc(F)cc43)nc3c2[nH]c(=O)n3C2CCOCC2)cn1 | < 100
57 | NC(=O)c1nc(-n2cnc3ccc(F)cc32)nc2c1[nH]c(=O)n2C1CCOc2ccccc21 (stereo not drawn) | < 100
58 | Cn1c(=O)n([C@H]2CC[C@H](O)CC2)c2nc(-n3cnc4ccc(Cl)cc43)nc(N3CC[C@@H](F)C3)c21 | < 100
59 | O=c1[nH]c2c(N3CCC(F)(F)CC3)nc(-n3cnc4ccc(F)cc43)nc2n1C1CCOCC1 | < 100
60 | O=c1[nH]c2c(N3CCCC(F)(F)C3)nc(-n3cnc4ccc(F)cc43)nc2n1C1CCOCC1 | < 100
61 | CN1CCCN(c2nc(-n3cnc4ccc(Cl)cc43)nc3c2[nH]c(=O)n3C2CCOCC2)CC1 | < 100
62 | CC(C)Cc1nc(-n2cnc3ccc(F)cc32)nc2c1[nH]c(=O)n2[C@@H]1CCOc2c(F)cccc21 | 100 to 1000
63 | O=c1[nH]c2c(-c3ccc(Cl)cc3)nc(-n3cnc4ccc(F)cc43)nc2n1[C@@H]1CCOc2c(F)cccc21 | 100 to 1000
64 | CC(C)(C)OC(=O)N1CC(Nc2nc(-n3cnc4ccc(F)cc43)nc3c2[nH]c(=O)n3C2CCOCC2)C1 | < 100
65 | COc1ccc(-c2nc(-n3cnc4ccc(F)cc43)nc3c2[nH]c(=O)n3C2CCOCC2)cc1 | < 100
66 | O=c1[nH]c2c(N3CC(F)(F)C(F)(F)C3)nc(-n3cnc4ccc(F)cc43)nc2n1C1CCOCC1 | < 100
67 | Cc1cccc(-c2nc(-n3cnc4ccc(F)cc43)nc3c2[nH]c(=O)n3C2CCOCC2)c1 | 100 to 1000
68 | N#CCCCc1nc(-n2cnc3ccc(F)cc32)nc2c1[nH]c(=O)n2[C@@H]1CCOc2c(F)cccc21 | < 100
69 | CC(C)(C)NS(=O)(=O)c1cccc(-c2nc(-n3cnc4ccc(F)cc43)nc3c2[nH]c(=O)n3C2CCOCC2)c1 | < 100
